Biological target: T1, MET D1228H (Homo sapiens, UniProt P08581, D1228H)
T1 construct: purchased Thermo Fisher Scientific (Life Technologies) SelectScreen
Experiment: SelectScreen LanthaScreen
Format: binding
Conditions: 1 µM
Procedure, shortened: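 NU5455 was profiled across the SelectScreen Broad panel of kinase activity and binding assays. Z'LYTE reactions such as CSF1R ran at apparent Km ATP, while the Adapta CAMK1 assay used ATP listed as 10. Values are given as percent.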

T1 sequence (P08581 25-1390 D1228H): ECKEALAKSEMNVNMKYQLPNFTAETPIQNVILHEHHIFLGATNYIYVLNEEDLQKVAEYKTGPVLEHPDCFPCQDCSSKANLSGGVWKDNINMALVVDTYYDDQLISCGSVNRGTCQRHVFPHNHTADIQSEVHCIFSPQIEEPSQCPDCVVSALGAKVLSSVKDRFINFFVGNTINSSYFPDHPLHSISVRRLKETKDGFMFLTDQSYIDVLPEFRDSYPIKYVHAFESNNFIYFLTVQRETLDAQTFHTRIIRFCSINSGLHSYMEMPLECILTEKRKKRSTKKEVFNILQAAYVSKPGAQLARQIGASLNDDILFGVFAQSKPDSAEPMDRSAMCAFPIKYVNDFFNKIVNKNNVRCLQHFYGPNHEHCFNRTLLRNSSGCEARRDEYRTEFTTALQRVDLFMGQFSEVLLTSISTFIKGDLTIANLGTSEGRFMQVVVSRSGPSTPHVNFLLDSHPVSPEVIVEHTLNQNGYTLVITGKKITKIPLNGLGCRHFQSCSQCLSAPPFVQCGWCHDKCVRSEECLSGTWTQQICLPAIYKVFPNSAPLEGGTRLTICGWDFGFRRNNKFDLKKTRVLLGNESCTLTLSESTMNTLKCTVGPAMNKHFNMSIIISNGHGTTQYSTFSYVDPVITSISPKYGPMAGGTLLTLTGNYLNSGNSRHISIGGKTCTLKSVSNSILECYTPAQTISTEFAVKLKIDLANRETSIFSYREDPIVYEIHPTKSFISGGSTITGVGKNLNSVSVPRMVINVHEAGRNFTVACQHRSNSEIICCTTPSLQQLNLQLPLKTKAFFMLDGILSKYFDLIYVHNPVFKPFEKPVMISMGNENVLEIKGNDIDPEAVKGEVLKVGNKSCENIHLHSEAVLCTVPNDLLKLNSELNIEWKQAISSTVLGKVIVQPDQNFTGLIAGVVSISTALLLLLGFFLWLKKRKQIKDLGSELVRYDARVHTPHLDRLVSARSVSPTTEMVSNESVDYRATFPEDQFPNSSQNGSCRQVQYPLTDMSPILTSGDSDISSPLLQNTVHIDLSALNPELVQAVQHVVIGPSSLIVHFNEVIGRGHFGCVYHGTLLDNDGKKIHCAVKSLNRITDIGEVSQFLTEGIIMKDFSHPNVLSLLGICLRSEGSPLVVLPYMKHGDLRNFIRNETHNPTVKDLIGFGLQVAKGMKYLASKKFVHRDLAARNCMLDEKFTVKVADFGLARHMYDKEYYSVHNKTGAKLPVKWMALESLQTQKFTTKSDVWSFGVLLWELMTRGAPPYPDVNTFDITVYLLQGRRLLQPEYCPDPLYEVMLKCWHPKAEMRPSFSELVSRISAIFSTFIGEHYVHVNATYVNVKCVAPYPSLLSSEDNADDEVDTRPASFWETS

CN(C(=O)CN1CCOCC1)c1ccc2sc3c(-c4cccc5c(=O)cc(N6CC7CCC(C6)O7)oc45)cccc3c2c1 [NU5455]
% displacement: -1.5%
